Key:
[1] = test system: MDCK-BCRP or MDCKII-MDR1 cells; assay: Transwell assay for membrane efflux and permeability; assay type: in vitro ADME, Canine; settings: test compound 1 μM, 2 hours at 37° C.
Procedure, shortened: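 Transport measured over 2 h at 37 °C with compounds at 1 μM final in HBSS containing 0.5% DMSO. Monolayers of BCRP-expressing MDCK or MDR1-expressing MDCKII cells were cultured 4-8 days, then HBSS-washed and equilibrated 30 min at 37 °C before dosing.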

Target C = assay: HiBiT protein abundance assay, Target C; assay type: cell-based, human; settings: Table 13A, modified K562 cells
Procedure, shortened: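 Cells carrying the HiBiT knock-in were plated at 10000 cells/well, dosed with compound (10-point, 3-fold, 10 μM top final) and incubated 24 hours at 37 °C. Lytic reagent was then added and luminescence read. Percent response fed a 4PL fit for IC50.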

SMILES | Permeability (Papp) [1] | IC50 (Target C; Homo sapiens, K562, 24 h) | Efflux Ratio [1] | IC50 (Target C; 24 hours)
Fc1cc(-c2ccc(OC3CC4CC(F)(F)C(C3)N4)nn2)c2[nH]ncc2c1-c1cn[nH]c1 (centres unmarked) [Compound 313, 7-[6-({6,6-difluoro-8-azabicyclo[3.2.1]octan-3-yl}oxy)pyridazin-3-yl]-5-fluoro-4-(1H-pyrazol-4-yl)-1H-indazole] | C (C represents a Papp greater than 6×10^−6 cm S^−1) | 100 to 1000 nM |  | 
CN(c1ccc(-c2ccc(-c3cn[nH]c3)c3ncsc23)nn1)[C@H]1C[C@H]2COC[C@@H](C1)N2 [Compound 356, (endo)-N-methyl-N-{6-[4-(1H-pyrazol-4-yl)-1,3-benzothiazol-7-yl]pyridazin-3-yl}-3-oxa-9-azabicyclo[3.3.1]nonan-7-amine] | A (A represents a Papp <2×10^−6 cm s^−1) |  | C (C represents a ratio greater than 5) | < 100 nM
